Non-standard residues stand in square brackets, D forms with d. No end group written: not given here. 2Nal = N[C@@H](Cc1ccc2ccccc2c1)C(=O)O; Sar = CNCC(=O)O
Columns and labels:
[1] = tested on: carboplatin treated mice; experiment: Example 3: dosing at various times after carboplatin, anemia in mice; type: in vivo, BALB/c mouse
Description: (§1) The effects of PEGylated TPO Compound No. 1 on mice treated with carboplatin were observed. For all examples herein, a 10 mg/ml stock solution of PEGylated TPO Compound No. 1 was prepared in sterile saline. For mixing, the preparation was placed on a gyratory shaker for 15 mm. at 200 rpm. This method was used to dissolve PEGylated TPO Compound No. 1 without foaming. The stock was filtered using a GV Millex (0.22 μm) filter. Dosing solutions were then prepared from this stock using sterile saline. The stock and dosing solutions were prepared fresh on the day of use.
The effect of PEGylated TPO Compound No. 1 on the duration and severity of anemia following dosing regimens in which PEGylated TPO Compound No. 1 is administered at various times following the carboplatin treatment was observed. For this study, an amount of PEGylated TPO Compound No. 1 was administered to mice, one (1) hour, one (1) day or four (4) days following a carboplatin dose.
The groups of mice were treated with either carboplatin or vehicle (Phosphate Buffered Saline, PBS) by ip administration on Days −1 and 0 as delineated below. The optimal dose of carboplatin used to induce thrombocytopenia in the BALB/c mouse strain was previously determined to be a fractionated total dose of 120 mg/kg given as two consecutive daily injections (i.e., 2×60 mg/kg). One hour (Day 0), one day (Day 1) or four days (Day 4) following the second dose of carboplatin, groups of mice were treated with PEGylated TPO Compound No. 1 (300 μg/kg) or vehicle (sterile saline, SS, preservative-free 0.9% sodium chloride) by IV (bolus) injection as delineated in Table 3. The dose was administered on a per-weight basis (100 μl/10 g body weight).
On Days 6, 8, 10 & 12, five mice in each test group were weighed and then euthanised using CO2-asphyxiation and exsanguinations via cardiac puncture. The blood samples were transferred to separate EDTA (lavender-top) microcontainers for hematological evaluation. Groups of control mice (5) were processed on Days 6 & 12. The data are presented graphically as group means +SEM.

[2] = tested on: carboplatin treated mice; experiment: Example 5: two rounds of high-dose carboplatin, hematocrit and survival of mice; type: in vivo, mouse; conditions: between days 4 and 18
Description: as §1
Groups of mice were treated with two rounds of the chemotherapeutic agent (carboplatin) ten days apart, with each round consisting of two consecutive days of carboplatin (i.e., 70 mg/kg/day administered on Days −1 & 0 and Days 10 & 11) as delineated below. The dose of carboplatin utilized for these survival studies exceeded the maximal tolerated dose for mice (i.e., 120 mg/kg; administered as 60 mg/kg/day on 2 consecutive days). One hour following the second dose of carboplatin in each round (i.e., Day 0 and 11) mice were treated with PEGylated TPO Compound No. 1 (100 μg/kg) or vehicle (sterile saline, SS, preservative-free 0.9% sodium chloride) by IV (bolus) injection as delineated below. The dose was administered on a per weight basis (100 μl/10 g body weight). […]

[3] = biological target: T1, human TPO receptor, c-mpl (hTPOr) (Homo sapiens, UniProt P40238); experiment: Example 7: Baf/3 hTPOr fos/lux luciferase reporter assay; type: cell-based
T1 construct: expressed in transfected cells
T1 sequence (P40238 26-635): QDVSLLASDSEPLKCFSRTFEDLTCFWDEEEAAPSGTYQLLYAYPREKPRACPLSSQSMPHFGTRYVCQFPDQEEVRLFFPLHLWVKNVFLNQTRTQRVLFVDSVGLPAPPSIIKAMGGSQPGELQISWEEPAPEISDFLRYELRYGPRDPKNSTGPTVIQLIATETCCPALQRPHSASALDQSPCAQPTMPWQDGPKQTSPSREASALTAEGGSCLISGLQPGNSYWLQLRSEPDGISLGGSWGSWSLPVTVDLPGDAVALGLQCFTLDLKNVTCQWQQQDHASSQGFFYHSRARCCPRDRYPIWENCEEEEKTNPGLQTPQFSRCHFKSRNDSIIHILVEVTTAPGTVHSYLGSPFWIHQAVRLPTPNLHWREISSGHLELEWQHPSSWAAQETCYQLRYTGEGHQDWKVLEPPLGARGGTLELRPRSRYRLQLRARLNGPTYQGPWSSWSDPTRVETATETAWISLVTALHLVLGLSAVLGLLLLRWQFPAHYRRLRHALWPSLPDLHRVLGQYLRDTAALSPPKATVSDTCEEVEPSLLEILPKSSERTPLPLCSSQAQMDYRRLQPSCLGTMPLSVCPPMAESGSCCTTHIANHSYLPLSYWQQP
Description: The activity of the peptide compounds can be determined using standard relative luminescent units assay techniques. The assay employs, e.g., murine cells engineered to stably express the human TPO receptor and a luciferase reporter construct driven by the fos promoter. The assay may be performed as follows: Serum deprived Baf/3 hTPOr fos/lux cells expressing the human TPO receptor, c-mpl (hTPOr), and a luciferase reporter construct are exposed to increasing concentrations of either rhTPO or peptide compound for approximately 18 hours. Cells are then incubated in a medium containing a luciferase substrate and the luminescence of the cells is measured using a luminometer.

Row | Compound | carboplatin-induced decreases in hemoglobin levels, RBC counts and hematocrits ([1]; 300 μg/kg iv on Day 0 (1 hour after carboplatin) and on Day 1) | weight loss associated with carboplatin treatment ([1]; 300 μg/kg iv on Day 0, Day 1 or Day 4, no statistical analysis) | carboplatin-induced changes in erythrocyte parameters ([1]; 300 μg/kg iv on Day 4) | onset, frequency or severity of signs (hunched, flaccid) ([1]; 300 μg/kg iv, no detailed analysis) | carboplatin-induced anemia ([1]; dosed within 24 hours of chemotherapy) | deaths among mice not utilized for hematological evaluation ([2]; combination therapy (carboplatin 70 mg/kg/day, 2 rounds, plus 100 μg/kg iv)) [mouse] | activation of TPO-R compared with TPO ([3]; at the same concentration as TPO) | activation of Baf/3 cells recombinantly expressing human TPO-R ([3]; increasing concentrations) | decreases in hemoglobin levels, RBC counts and hematocrits ([1]; carboplatin alone 2×60 mg/kg ip, surviving mice (2 mice) by Day 12 compared to control groups) | deaths among mice not utilized for hematological evaluation ([2]; carboplatin alone 70 mg/kg/day, 2 rounds) [mice]
1 | Methoxypolyethyleneglycol20000-propionyl-L-Isoleucyl-L-Glutamyl-Glycyl-L-Prolyl-L-Threonyl-L-Leucyl-L-Arginyl-L-Glutaminyl-L-2-Naphthylalanyl-L-Leucyl-L-Alanyl-L-Alanyl-L-Arginyl-Sarcosyl-Ne-(methoxypolyethyleneglycol20000-propionyl-L-Isoleucyl-L-Glutamyl-Glycyl-L-Prolyl-L-Threonyl-L-Leucyl-L-Arginyl-L-Glutaminyl-L-2-Naphthylalanyl-L-Leucyl-L-Alanyl-L-Alanyl-L-Arginyl-Sarcosyl-)-Lysinamide ({methoxypolyethyleneglycol20000‑propionyl}-IEGPTLRQ[2Nal]LAAR[Sar]K[Sar]RAAL[2Nal]QRLTPGEI; also: dimer: positions 16-29 are the second 14-mer written in reverse, its Sar C-terminus joined to the K15 epsilon-amine, K15 is C-terminal lysinamide (NH2), methoxypolyethyleneglycol20000-propionyl also on Ile29 N-terminus) [PEGylated TPO Compound No. 1] | prevented | did not appear to affect the weight loss | failed to affect carboplatin-induced changes | did not appear to have a dramatic effect | Prevention of carboplatin-induced anemia is observed | 1 | stronger activation | dose dependent |  | 
2 | N.N.O=C([O-])C1(C(=O)[O-])CCC1.[Pt+2] [carboplatin, reference compound] |  |  |  |  |  |  |  |  | approx. 47% | 7

Reference: US7615533B2, “TPO peptide compounds for treatment of anemia” (Janssen Pharmaceutica N.V., priority 2004, dated 2009)
